Data reported in article PMC7869707 (European Journal of Medicinal Chemistry, 2021).

Tested on: wild-type SARS-CoV-2 (wuhan-HU-1 variant)
Assay type: cell-based

C[C@@H]1O[C@@H](O[C@H]2[C@H](O[C@H]3CC[C@]4(C)[C@H]5CC=C6[C@@H]7CC(C)(C)CC[C@]7(C(=O)NCc7ccccc7)CC[C@@]6(C)[C@]5(C)CC[C@H]4C3(C)C)O[C@H](CO)[C@@H](O[C@@H]3O[C@@H](C)[C@H](O)[C@@H](O)[C@H]3O)[C@@H]2O)[C@H](O)[C@H](O)[C@H]1O [Compound 12f, N-{3β-O-[2,4-di-O-(a-L-rhamnopyranosyl)-β-D-glucopyranosyl]-olean-12-en-28-oyl}-benzylamine]
Inhibition of SARS-CoV-2 infection by IFA, NP expression: dose-dependent manner
